{"source": "ChEMBL document CHEMBL1201862", "about": "“PubChem BioAssay data set” (2004)", "assay_in_all_cases": "DTP human tumour cell line panel, 48 h", "key": {"[1]": {"test_system": "786-0"}, "[2]": {"test_system": "A498"}, "[3]": {"test_system": "A549"}, "[4]": {"test_system": "ACHN"}, "[5]": {"test_system": "CAKI-1"}, "[6]": {"test_system": "CCRF-CEM"}, "[7]": {"test_system": "COLO 205"}, "[8]": {"test_system": "DLD-1"}, "[9]": {"test_system": "DMS-273"}, "[10]": {"test_system": "EKVX"}, "[11]": {"test_system": "HCC 2998"}, "[12]": {"test_system": "HCT-116"}, "[13]": {"test_system": "HCT-15"}, "[14]": {"test_system": "HL-60"}, "[15]": {"test_system": "HOP-18"}, "[16]": {"test_system": "HOP-62"}, "[17]": {"test_system": "IGROV-1"}, "[18]": {"test_system": "K562"}, "[19]": {"test_system": "KM-20L2"}, "[20]": {"test_system": "KM12"}, "[21]": {"test_system": "LXFL 529"}, "[22]": {"test_system": "M14"}, "[23]": {"test_system": "M19-MEL"}, "[24]": {"test_system": "MOLT-4"}, "[25]": {"test_system": "Malme-3M"}, "[26]": {"test_system": "NCI-H226"}, "[27]": {"test_system": "NCI-H460"}, "[28]": {"test_system": "NCI-H522"}, "[29]": {"test_system": "OVCAR-4"}, "[30]": {"test_system": "OVCAR-8"}, "[31]": {"test_system": "RPMI-8226"}, "[32]": {"test_system": "RXF 393"}, "[33]": {"test_system": "SF-268"}, "[34]": {"test_system": "SF-539"}, "[35]": {"test_system": "SK-MEL-28"}, "[36]": {"test_system": "SK-MEL-2"}, "[37]": {"test_system": "SK-MEL-5"}, "[38]": {"test_system": "SK-OV-3"}, "[39]": {"test_system": "SN12C"}, "[40]": {"test_system": "SNB-19"}, "[41]": {"test_system": "SNB-75"}, "[42]": {"test_system": "SNB-78"}, "[43]": {"test_system": "SR"}, "[44]": {"test_system": "SW-620"}, "[45]": {"test_system": "TK-10"}, "[46]": {"test_system": "U-251"}, "[47]": {"test_system": "UACC-257"}, "[48]": {"test_system": "UACC-62"}, "[49]": {"test_system": "UO-31"}, "[50]": {"test_system": "DMS-114"}, "[51]": {"test_system": "HT-29"}, "[52]": {"test_system": "LOX IMVI"}, "[53]": {"test_system": "NCI-H23"}, "[54]": {"test_system": "OVCAR-3"}, "[55]": {"test_system": "OVCAR-5"}, "[56]": {"test_system": "SF-295"}, "[57]": {"test_system": "XF498"}}, "note": "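Dose response: 5 concentrations. Exposure: 48 h. Format: 96-well plates. Endpoint: linear interpolation; highest concentration if not reached. GI50 marks 50% less growth.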 The source made the active and inactive calls. No stated cut-off is given here; in the data, active = GI50 up to about 1.1 µM and inactive = higher.", "data": [{"smiles": "O=C(CN1C(=O)c2ccccc2C1=O)OC1C=CCCC1", "note": "(centres undefined)", "values": [{"measurement": "GI50", "setting": "[1]", "value": "> 100 µM (inactive)"}, {"measurement": "GI50", "setting": "[2]", "value": "> 100 µM (inactive)"}, {"measurement": "GI50", "setting": "[3]", "value": "> 100 µM (inactive)"}, {"measurement": "GI50", "setting": "[4]", "value": "> 100 µM (inactive)"}, {"measurement": "GI50", "setting": "[5]", "value": "> 100 µM (inactive)"}, {"measurement": "GI50", "setting": "[6]", "value": "> 100 µM (inactive)"}, {"measurement": "GI50", "setting": "[7]", "value": "> 100 µM (inactive)"}, {"measurement": "GI50", "setting": "[8]", "value": "> 100 µM (inactive)"}, {"measurement": "GI50", "setting": "[9]", "value": "> 100 µM (inactive)"}, {"measurement": "GI50", "setting": "[10]", "value": "> 100 µM (inactive)"}, {"measurement": "GI50", "setting": "[11]", "value": "> 100 µM (inactive)"}, {"measurement": "GI50", "setting": "[12]", "value": "> 100 µM (inactive)"}, {"measurement": "GI50", "setting": "[13]", "value": "> 100", "unit": "µM"}, {"measurement": "GI50", "setting": "[14]", "value": "> 100 µM (inactive)"}, {"measurement": "GI50", "setting": "[15]", "value": "> 100 µM (inactive)"}, {"measurement": "GI50", "setting": "[16]", "value": "> 100 µM (inactive)"}, {"measurement": "GI50", "setting": "[17]", "value": "> 100 µM (inactive)"}, {"measurement": "GI50", "setting": "[18]", "value": "> 100 µM (inactive)"}, {"measurement": "GI50", "setting": "[19]", "value": "> 100 µM (inactive)"}, {"measurement": "GI50", "setting": "[20]", "value": "> 100 µM (inactive)"}, {"measurement": "GI50", "setting": "[21]", "value": "> 100 µM (inactive)"}, {"measurement": "GI50", "setting": "[22]", "value": "> 100 µM (inactive)"}, {"measurement": "GI50", "setting": "[23]", "value": "> 100 µM (inactive)"}, {"measurement": "GI50", "setting": "[24]", "value": "> 100 µM (inactive)"}, {"measurement": "GI50", "setting": "[25]", "value": "> 100 µM (inactive)"}, {"measurement": "GI50", "setting": "[26]", "value": "> 100 µM (inactive)"}, {"measurement": "GI50", "setting": "[27]", "value": "> 100 µM (inactive)"}, {"measurement": "GI50", "setting": "[28]", "value": "72.8 µM (inactive)"}, {"measurement": "GI50", "setting": "[29]", "value": "> 100 µM (inactive)"}, {"measurement": "GI50", "setting": "[30]", "value": "> 100 µM (inactive)"}, {"measurement": "GI50", "setting": "[31]", "value": "> 100 µM (inactive)"}, {"measurement": "GI50", "setting": "[32]", "value": "> 100 µM (inactive)"}, {"measurement": "GI50", "setting": "[33]", "value": "> 100 µM (inactive)"}, {"measurement": "GI50", "setting": "[34]", "value": "> 100 µM (inactive)"}, {"measurement": "GI50", "setting": "[35]", "value": "> 100 µM (inactive)"}, {"measurement": "GI50", "setting": "[36]", "value": "> 100 µM (inactive)"}, {"measurement": "GI50", "setting": "[37]", "value": "> 100 µM (inactive)"}, {"measurement": "GI50", "setting": "[38]", "value": "> 100 µM (inactive)"}, {"measurement": "GI50", "setting": "[39]", "value": "> 100 µM (inactive)"}, {"measurement": "GI50", "setting": "[40]", "value": "> 100 µM (inactive)"}, {"measurement": "GI50", "setting": "[41]", "value": "> 100 µM (inactive)"}, {"measurement": "GI50", "setting": "[42]", "value": "> 100 µM (inactive)"}, {"measurement": "GI50", "setting": "[43]", "value": "> 100 µM (inactive)"}, {"measurement": "GI50", "setting": "[44]", "value": "> 100 µM (inactive)"}, {"measurement": "GI50", "setting": "[45]", "value": "> 100 µM (inactive)"}, {"measurement": "GI50", "setting": "[46]", "value": "> 100 µM (inactive)"}, {"measurement": "GI50", "setting": "[47]", "value": "> 100 µM (inactive)"}, {"measurement": "GI50", "setting": "[48]", "value": "> 100 µM (inactive)"}, {"measurement": "GI50", "setting": "[49]", "value": "> 100 µM (inactive)"}]}, {"smiles": "CN(CCN(C)C(=O)CCn1cc(F)c(=O)[nH]c1=O)C(=O)CCn1cc(F)c(=O)[nH]c1=O", "values": [{"measurement": "GI50", "setting": "[1]", "value": "> 100 µM (inactive)"}, {"measurement": "GI50", "setting": "[3]", "value": "> 100 µM (inactive)"}, {"measurement": "GI50", "setting": "[4]", "value": "> 100 µM (inactive)"}, {"measurement": "GI50", "setting": "[6]", "value": "> 100 µM (inactive)"}, {"measurement": "GI50", "setting": "[7]", "value": "> 100 µM (inactive)"}, {"measurement": "GI50", "setting": "[50]", "value": "> 100 µM (inactive)"}, {"measurement": "GI50", "setting": "[9]", "value": "> 100 µM (inactive)"}, {"measurement": "GI50", "setting": "[10]", "value": "> 100 µM (inactive)"}, {"measurement": "GI50", "setting": "[11]", "value": "> 100 µM (inactive)"}, {"measurement": "GI50", "setting": "[12]", "value": "> 100 µM (inactive)"}, {"measurement": "GI50", "setting": "[13]", "value": "> 100", "unit": "µM"}, {"measurement": "GI50", "setting": "[14]", "value": "> 100 µM (inactive)"}, {"measurement": "GI50", "setting": "[16]", "value": "> 100 µM (inactive)"}, {"measurement": "GI50", "setting": "[51]", "value": "> 100 µM (inactive)"}, {"measurement": "GI50", "setting": "[17]", "value": "> 100 µM (inactive)"}, {"measurement": "GI50", "setting": "[18]", "value": "> 100 µM (inactive)"}, {"measurement": "GI50", "setting": "[19]", "value": "> 100 µM (inactive)"}, {"measurement": "GI50", "setting": "[20]", "value": "> 100 µM (inactive)"}, {"measurement": "GI50", "setting": "[52]", "value": "> 100 µM (inactive)"}, {"measurement": "GI50", "setting": "[21]", "value": "> 100 µM (inactive)"}, {"measurement": "GI50", "setting": "[22]", "value": "> 100 µM (inactive)"}, {"measurement": "GI50", "setting": "[23]", "value": "> 100 µM (inactive)"}, {"measurement": "GI50", "setting": "[24]", "value": "> 100 µM (inactive)"}, {"measurement": "GI50", "setting": "[25]", "value": "> 100 µM (inactive)"}, {"measurement": "GI50", "setting": "[26]", "value": "> 100 µM (inactive)"}, {"measurement": "GI50", "setting": "[53]", "value": "> 100 µM (inactive)"}, {"measurement": "GI50", "setting": "[27]", "value": "> 100 µM (inactive)"}, {"measurement": "GI50", "setting": "[28]", "value": "3.16 µM (inactive)"}, {"measurement": "GI50", "setting": "[54]", "value": "> 100 µM (inactive)"}, {"measurement": "GI50", "setting": "[29]", "value": "> 100 µM (inactive)"}, {"measurement": "GI50", "setting": "[55]", "value": "> 100 µM (inactive)"}, {"measurement": "GI50", "setting": "[30]", "value": "> 100 µM (inactive)"}, {"measurement": "GI50", "setting": "[31]", "value": "> 100 µM (inactive)"}, {"measurement": "GI50", "setting": "[32]", "value": "> 100 µM (inactive)"}, {"measurement": "GI50", "setting": "[33]", "value": "> 100 µM (inactive)"}, {"measurement": "GI50", "setting": "[56]", "value": "> 100 µM (inactive)"}, {"measurement": "GI50", "setting": "[34]", "value": "95.5 µM (inactive)"}, {"measurement": "GI50", "setting": "[35]", "value": "> 100 µM (inactive)"}, {"measurement": "GI50", "setting": "[36]", "value": "> 100 µM (inactive)"}, {"measurement": "GI50", "setting": "[37]", "value": "> 100 µM (inactive)"}, {"measurement": "GI50", "setting": "[39]", "value": "> 100 µM (inactive)"}, {"measurement": "GI50", "setting": "[40]", "value": "> 100 µM (inactive)"}, {"measurement": "GI50", "setting": "[41]", "value": "36.2 µM (inactive)"}, {"measurement": "GI50", "setting": "[43]", "value": "> 100 µM (inactive)"}, {"measurement": "GI50", "setting": "[44]", "value": "> 100 µM (inactive)"}, {"measurement": "GI50", "setting": "[45]", "value": "> 100 µM (inactive)"}, {"measurement": "GI50", "setting": "[46]", "value": "> 100 µM (inactive)"}, {"measurement": "GI50", "setting": "[48]", "value": "> 100 µM (inactive)"}, {"measurement": "GI50", "setting": "[49]", "value": "> 100 µM (inactive)"}, {"measurement": "GI50", "setting": "[57]", "value": "> 100 µM (inactive)"}]}]}
